Measurements: US20240300942A1, “SMALL MOLECULES FOR TREATEMENT OF CANCER” (VRise Therapeutics Inc., priority 2021, published 2024)

Tests used:
MIAPACA-2 cell line = test: In vitro cell proliferation assay (CCK-8) in MIAPACA-2 cell line; type: cell-based; conditions: Homo sapiens, MIA PaCa-2, 72 hours; for inhibition at 3 µM: TC1: Test Concentration of 3 uM; for inhibition at 10 µM: TC2: Test Concentration of 10 uM
Protocol: (§1) Growth inhibition assays is to be carried out using 10% FBS supplemented media. Cells are to be seeded at a desired concentration of 1,500-6,000 cells/well in a 96-well plate. Test compounds at a concentration range from 1 to 30 uM will be added after 24 hours. Growth will be assessed using the CCK-8 kit for measuring reduction at 0 h (prior to the addition of the test compound) and 72 hours after the addition of test compound. Absorbance read on a BIO-RAD iMark Microplate or any equivalent microplate reader at a wavelength of 450 nm. Data was analysed and percent inhibition due to the test compound compared to the control is calculated accordingly.

NCI-H358 cell line = test: In vitro cell proliferation assay (CCK-8) in NCI-H358 cell line; type: cell-based; conditions: Homo sapiens, 72 hours; for inhibition at 10 µM: TC2: Test Concentration of 10 uM
Protocol: as §1

SMILES | inhibition at 3 µM (MIAPACA-2 cell line) [%] | inhibition at 10 µM (MIAPACA-2 cell line) [%] | inhibition at 10 µM (NCI-H358 cell line) [%] | inhibition at 3 µM (NCI-H358 cell line; TC1: Test Concentration of 3 uM) [%]
C=CC(=O)N1CCN(c2nc(OC[C@@H]3CCCN3C)c(C#N)c3c2CCN(c2cc(O)cc4ccccc24)C3)CC1 [Ex 9, (S)-1-(4-acryloylpiperazin-1-yl)-6-(3-hydroxynaphthalen-1-yl)-3-((1-methylpyrrolidin-2-yl)methoxy)-5,6,7,8-tetrahydro-2,6-naphthyridine-4-carbonitrile] | 75 to 100 | 75 to 100 |  | 
C=CC(=O)N1CCN(c2nc(N3CCOCC3)c(C#N)c3c2CCN(Cc2ccccc2)C3)CC1 [Ex 34, 1-(4-acryloylpiperazin-1-yl)-6-benzyl-3-morpholino-5,6,7,8-tetrahydro-2,6-naphthyridine-4-carbonitrile] |  |  | 25 to 50 | 
C=CC(=O)N1CCN(c2nc(OC[C@@H]3CCCN3C)c(C#N)c3c2CCN(c2cc(O)cc4ccccc24)C3)CC1CC#N (stereo partly drawn) [Ex 19, 1-(4-acryloyl-3-(cyanomethyl)piperazin-1-yl)-6-(3-hydroxynaphthalen-1-yl)-3-(((S)-1-methylpyrrolidin-2-yl)methoxy)-5,6,7,8-tetrahydro-2,6-naphthyridine-4-carbonitrile] | 75 to 100 | 75 to 100 |  | 
C=CC(=O)N1CCN(c2nc(N3CCS(=O)(=O)CC3)c(C#N)c3c2CCN(c2cccc4ccccc24)C3)CC1 [Ex 1, 1-(4-acryloylpiperazin-1-yl)-3-(1,1-dioxidothiomorpholino)-6-(naphthalen-1-yl)-5,6,7,8-tetrahydro-2,6-naphthyridine-4-carbonitrile] |  | 75 to 100 |  | 
C=C(F)C(=O)N1CCN(c2nc(OC[C@@H]3CCCN3C)c(C#N)c3c2CCN(c2cccc4ccccc24)C3)CC1CC#N (stereo partly drawn) [Ex 20, 1-(3-(cyanomethyl)-4-(2-fluoroacryloyl)piperazin-1-yl)-3-(((S)-1-methylpyrrolidin-2-yl)methoxy)-6-(naphthalen-1-yl)-5,6,7,8-tetrahydro-2,6-naphthyridine-4-carbonitrile] | 50 to 75 | 75 to 100 |  | 
C=CC(=O)N1CCN(c2nc(N3CCCCC3)c(C#N)c3c2CCN(Cc2ccccc2)C3)CC1 [Ex 42, 1-(4-acryloylpiperazin-1-yl)-6-benzyl-3-(piperidin-1-yl)-5,6,7,8-tetrahydro-2,6-naphthyridine-4-carbonitrile] |  |  | 25 to 50 | 
C=C(F)C(=O)N1CCN(c2nc(OC[C@@H]3CCCN3C)c(C#N)c3c2CCN(c2cccc4cccc(Cl)c24)C3)CC1CC#N (stereo partly drawn) [Ex 26, 6-(8-chloronaphthalen-1-yl)-1-(3-(cyanomethyl)-4-(2-fluoroacryloyl)piperazin-1-yl)-3-(((S)-1-methylpyrrolidin-2-yl)methoxy)-5,6,7,8-tetrahydro-2,6-naphthyridine-4-carbonitrile] |  |  | 75 to 100 | 25 to 50
C=C(F)C(=O)N1CCN(c2nc(OC[C@@H]3CCCN3C)c(C#N)c3c2CCN(c2ncnc4ccccc24)C3)CC1 [Ex 10, (S)-1-(4-(2-fluoroacryloyl)piperazin-1-yl)-3-((1-methylpyrrolidin-2-yl)methoxy)-6-(quinazolin-4-yl)-5,6,7,8-tetrahydro-2,6-naphthyridine-4-carbonitrile] | 75 to 100 | 75 to 100 |  | 
C=CC(=O)N1CCN(c2nc(N3CCN(C)CC3)c(C#N)c3c2CCN(Cc2ccccc2)C3)[C@H](C)C1 [Ex 39, (R)-1-(4-acryloyl-2-methylpiperazin-1-yl)-6-benzyl-3-(4-methylpiperazin-1-yl)-5,6,7,8-tetrahydro-2,6-naphthyridine-4-carbonitrile] |  |  | 25 to 50 | 
C=CC(=O)N1CCN(c2nc(OC[C@@H]3CCCN3C)c(C#N)c3c2CCN(c2cncc4ccccc24)C3)CC1 [Ex 21, (S)-1-(4-acryloylpiperazin-1-yl)-6-(isoquinolin-4-yl)-3-((1-methylpyrrolidin-2-yl)methoxy)-5,6,7,8-tetrahydro-2,6-naphthyridine-4-carbonitrile] | 50 to 75 | 50 to 75 |  | 
C=CC(=O)N1CCN(c2nc(OC[C@@H]3CCCN3C)c(C#N)c3c2CCN(c2cccc4ccccc24)C3)C[C@H]1CC#N [Ex 18, 1-((R)-4-acryloyl-3-(cyanomethyl)piperazin-1-yl)-3-(((S)-1-methylpyrrolidin-2-yl)methoxy)-6-(naphthalen-1-yl)-5,6,7,8-tetrahydro-2,6-naphthyridine-4-carbonitrile] | 75 to 100 | 75 to 100 |  | 
C=CC(=O)N1CCN(c2nc(OC[C@@H]3CCCN3C)c(C#N)c3c2CCN(c2cccc4ccccc24)C3)C[C@@H]1CC#N [Ex 17, 1-((S)-4-acryloyl-3-(cyanomethyl)piperazin-1-yl)-3-(((S)-1-methylpyrrolidin-2-yl)methoxy)-6-(naphthalen-1-yl)-5,6,7,8-tetrahydro-2,6-naphthyridine-4-carbonitrile] | 75 to 100 | 75 to 100 |  | 
C=CS(=O)(=O)N1CCN(c2nc(OC[C@@H]3CCCN3C)c(C#N)c3c2CCN(c2cccc4cccc(Cl)c24)C3)CC1 [Ex 11, (S)-6-(8-chloronaphthalen-1-yl)-3-((1-methylpyrrolidin-2-yl)methoxy)-1-(4-(vinylsulfonyl)piperazin-1-yl)-5,6,7,8-tetrahydro-2,6-naphthyridine-4-carbonitrile] | 75 to 100 | 75 to 100 |  | 
C=CC(=O)N1CCN(c2nc(-c3ccnc(F)c3)c(C#N)c3c2CCN(Cc2ccccc2)C3)CC1 [Ex 43, 1-(4-acryloylpiperazin-1-yl)-6-benzyl-3-(2-fluoropyridin-4-yl)-5,6,7,8-tetrahydro-2,6-naphthyridine-4-carbonitrile] |  |  | 25 to 50 | 
C=CC(=O)N1CCN(c2nc(N3CCN(C)CC3)c(C#N)c3c2CCN(Cc2ccccc2)C3)CC1 [Ex 35, 1-(4-acryloylpiperazin-1-yl)-6-benzyl-3-(4-methylpiperazin-1-yl)-5,6,7,8-tetrahydro-2,6-naphthyridine-4-carbonitrile] |  |  | 25 to 50 | 
C=CC(=O)Oc1nc(N2CCN(C(=O)C=C)CC2)c2c(c1C#N)CN(Cc1ccccc1)CC2 [Ex 33, 1-(4-acryloylpiperazin-1-yl)-6-benzyl-4-cyano-5,6,7,8-tetrahydro-2,6-naphthyridin-3-yl acrylate] |  |  | ≤ 25 | 
C=CC(=O)N1CCN(c2nc(N3CCN(C(C)=O)CC3)c(C#N)c3c2CCN(c2cccc4ccccc24)C3)CC1 [Ex 51, 3-(4-acetylpiperazin-1-yl)-1-(4-acryloylpiperazin-1-yl)-6-(naphthalen-1-yl)-5,6,7,8-tetrahydro-2,6-naphthyridine-4-carbonitrile] |  |  | 50 to 75 | 
C=C(F)C(=O)N1CCN(c2nc(N3CCN(C(=O)CC)CC3)c(C#N)c3c2CCN(c2cccc4ccccc24)C3)CC1 [Ex 57, 1-(4-(2-fluoroacryloyl)piperazin-1-yl)-6-(naphthalen-1-yl)-3-(4-propionylpiperazin-1-yl)-5,6,7,8-tetrahydro-2,6-naphthyridine-4-carbonitrile] |  |  | 75 to 100 | 
C=CC(=O)N1CCN(c2nc(N3CCN(C(=O)CC)CC3)c(C#N)c3c2CCN(c2cccc4ccccc24)C3)CC1 [Ex 48, 1-(4-acryloylpiperazin-1-yl)-6-(naphthalen-1-yl)-3-(4-propionylpiperazin-1-yl)-5,6,7,8-tetrahydro-2,6-naphthyridine-4-carbonitrile] |  |  | 75 to 100 | 
C=CC(=O)N1CCN(c2nc(N3CC(C)OC(C)C3)c(C#N)c3c2CCN(c2cccc4ccccc24)C3)C[C@@H]1CC#N (single isomer, unassigned) [Ex 14] | 75 to 100 | 75 to 100 |  | 
C=C(F)C(=O)N1CCN(c2nc(OC[C@@H]3CCCN3C)c(C#N)c3c2CCN(c2cccc4cccc(Cl)c24)C3)CC1C (stereo partly drawn) [Ex 12, 6-(8-chloronaphthalen-1-yl)-1-(4-(2-fluoroacryloyl)-3-methylpiperazin-1-yl)-3-(((S)-1-methylpyrrolidin-2-yl)methoxy)-5,6,7,8-tetrahydro-2,6-naphthyridine-4-carbonitrile] | 50 to 75 | 75 to 100 |  | 
C=CC(=O)N1CCN(c2ncc(C#N)c3c2CCN(c2cccc4ccccc24)C3)CC1 [Ex 56, 1-(4-acryloylpiperazin-1-yl)-6-(naphthalen-1-yl)-5,6,7,8-tetrahydro-2,6-naphthyridine-4-carbonitrile] |  |  | ≤ 25 | 
C=CC(=O)N1CCN(c2nc(N3CCN(C)CC3)c(C#N)c3c2CCN(c2cccc4ccccc24)C3)CC1 [Ex 41, 1-(4-acryloylpiperazin-1-yl)-3-(4-methylpiperazin-1-yl)-6-(naphthalen-1-yl)-5,6,7,8-tetrahydro-2,6-naphthyridine-4-carbonitrile] |  |  | 25 to 50 | 
C=CC(=O)N1CCN(c2nc(OC[C@@H]3CCCN3C)c(C#N)c3c2CCN(c2cccc4cccc(Cl)c24)C3)CC1 [Ex 8, (S)-1-(4-acryloylpiperazin-1-yl)-6-(8-chloronaphthalen-1-yl)-3-((1-methylpyrrolidin-2-yl)methoxy)-5,6,7,8-tetrahydro-2,6-naphthyridine-4-carbonitrile] | 25 to 50 | 75 to 100 |  | 
C=CC(=O)N1CCN(c2nc(N3CC(C)OC(C)C3)c(C#N)c3c2CCN(c2cccc4ccccc24)C3)CC1CC#N (racemic) [Ex 13, 1-(4-acryloyl-3-(cyanomethyl)piperazin-1-yl)-3-(2,6-dimethylmorpholino)-6-(naphthalen-1-yl)-5,6,7,8-tetrahydro-2,6-naphthyridine-4-carbonitrile] | 75 to 100 | 75 to 100 |  | 
C=CC(=O)N1CCN(c2nc(N3CC(C)OC(C)C3)c(C#N)c3c2CCN(c2cccc4ccccc24)C3)C[C@H]1CC#N (single isomer, unassigned) [Ex 15] | 75 to 100 | 75 to 100 |  | 
